Data from US20230085307A1, “PYRIDAZINONE COMPOUND AND HERBICIDE” (NISSAN CHEMICAL CORPORATION, priority 2019, published 2023).

Assays:
lambsquarters = experiment: Test Example 5: herbicidal effect by foliage application, plastic box (Table 20, symbol O); type: in vivo, lambsquarters (Chenopodium album); conditions: foliage application, 320 g/ha, three weeks after application
How it was run: (§1)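 Plants sown in sterilized diluvial soil and grown 14 days in a greenhouse at 25° C to 30° C, then sprayed on the foliage with the compound's emulsion diluted in water to a predetermined herbicide amount. Injury to weeds and crops scored three weeks after application on a visual rating scale.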

southern crabgrass [1] = experiment: Test Example 5: herbicidal effect by foliage application, plastic box (Table 20, symbol F); type: in vivo, southern crabgrass (Digitaria ciliaris); conditions: foliage application, 320 g/ha, three weeks after application
How it was run: as §1

wild oat [2] = experiment: Test Example 5: herbicidal effect by foliage application, plastic box (Table 20, symbol I); type: in vivo, wild oat (Avena fatua); conditions: foliage application, 320 g/ha, three weeks after application
How it was run: as §1

Chinese sprangletop = experiment: Test Example 3: herbicidal effect by foliage application, Wagner pot (Table 18, symbol D); type: in vivo, chinese sprangletop (Leptochloa chinensis); conditions: for Herbicidal effect on D (Chinese sprangletop), foliage application: amount of applied herbicide 320 g/ha
How it was run: (§2)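 Plants were sown in alluvial soil held under 0.1–0.5 cm standing water and grown 14 days in a greenhouse at 25–30 °C. An emulsifiable formulation, water-diluted to the set dose, was then sprayed onto the foliage, and effects were scored three weeks later using previously defined criteria.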

persian speedwell = experiment: Test Example 5: herbicidal effect by foliage application, plastic box (Table 20, symbol R); type: in vivo, Persian speedwell (Veronica persica); conditions: foliage application, 320 g/ha, three weeks after application
How it was run: as §1

Japanese bulrush = experiment: Test Example 1: herbicidal activity, application before weed generation under submerged conditions (Table 16, symbol B); type: in vivo, Japanese bulrush (Schoenoplectus juncoides); conditions: amount of applied herbicide 320 g/ha
How it was run: (§3)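 Submerged Wagner pots (alluvial soil, 4 cm water) sown with weed seeds and planted with 2.5-leaf rice seedlings; emulsifiable concentrate diluted in water applied to water surface on sowing day. Held in greenhouse at 25-30 °C; injury scored 0-5 by herbicidal rate after three weeks.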

windgrass = experiment: Test Example 5: herbicidal effect by foliage application, plastic box (Table 20, symbol L); type: in vivo, windgrass (Apera spica-venti); conditions: foliage application, 320 g/ha, three weeks after application
How it was run: as §1

Italian ryegrass = experiment: Test Example 4: herbicidal effect by soil treatment (Table 19, symbol K); type: in vivo, Italian ryegrass (Lolium multiflorum); conditions: amount of applied herbicide 320 g/ha
How it was run: (§4)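 Seeds were sown in sterilized diluvial soil and covered with about 1.5 cm of soil. An emulsion formulation diluted with water to a predetermined herbicide amount was sprayed evenly onto the soil surface. Plants grew in a greenhouse at 25° C. to 30° C., and the effect was scored three weeks after application using criteria from an earlier test.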

blackgrass [3] = experiment: Test Example 5: herbicidal effect by foliage application, plastic box (Table 20, symbol J); type: in vivo, blackgrass (Alopecurus myosuroides); conditions: foliage application, 320 g/ha, three weeks after application
How it was run: as §1

barnyard grass [4] = experiment: Test Example 3: herbicidal effect by foliage application, Wagner pot (Table 18, symbol H); type: in vivo, barnyard grass (Echinochloa crus-galli); conditions: for Herbicidal effect on H (barnyard grass), foliage application: amount of applied herbicide 320 g/ha
How it was run: as §2

southern crabgrass [5] = experiment: Test Example 4: herbicidal effect by soil treatment (Table 19, symbol F); type: in vivo, southern crabgrass (Digitaria ciliaris); conditions: amount of applied herbicide 320 g/ha
How it was run: as §4

redroot pigweed = experiment: Test Example 4: herbicidal effect by soil treatment (Table 19, symbol N); type: in vivo, redroot pigweed (Amaranthus retroflexus); conditions: amount of applied herbicide 320 g/ha
How it was run: as §4

barnyard grass [6] = experiment: Test Example 5: herbicidal effect by foliage application, plastic box (Table 20, symbol H); type: in vivo, barnyard grass (Echinochloa crus-galli); conditions: foliage application, 320 g/ha, three weeks after application
How it was run: as §1

false cleavers [7] = experiment: Test Example 4: herbicidal effect by soil treatment (Table 19, symbol Q); type: in vivo, false cleavers (Galium spurium); conditions: amount of applied herbicide 320 g/ha
How it was run: as §4

wild oat [8] = experiment: Test Example 4: herbicidal effect by soil treatment (Table 19, symbol I); type: in vivo, wild oat (Avena fatua); conditions: amount of applied herbicide 320 g/ha
How it was run: as §4

blackgrass [9] = experiment: Test Example 4: herbicidal effect by soil treatment (Table 19, symbol J); type: in vivo, blackgrass (Alopecurus myosuroides); conditions: amount of applied herbicide 320 g/ha
How it was run: as §4

oval-leafed pondweed = experiment: Test Example 1: herbicidal activity, application before weed generation under submerged conditions (Table 16, symbol C); type: in vivo, oval-leafed pondweed (Monochoria vaginalis); conditions: amount of applied herbicide 320 g/ha
How it was run: as §3

false cleavers [10] = experiment: Test Example 5: herbicidal effect by foliage application, plastic box (Table 20, symbol Q); type: in vivo, false cleavers (Galium spurium); conditions: foliage application, 320 g/ha, three weeks after application
How it was run: as §1

Compound	Herbicidal effect, B: Japanese bulrush (Japanese bulrush)	K: Italian ryegrass, herbicidal effect grade (Italian ryegrass)	F: southern crabgrass, herbicidal effect grade (southern crabgrass [5])	N: redroot pigweed, herbicidal effect grade (redroot pigweed)	Q: false cleavers, herbicidal effect grade (false cleavers [7])	I: wild oat, herbicidal effect grade (wild oat [8])	J: blackgrass, herbicidal effect grade (blackgrass [9])	Herbicidal effect, C: oval-leafed pondweed (oval-leafed pondweed)	herbicidal effect on lambsquarters (O) (lambsquarters)	herbicidal effect on southern crabgrass (F) (southern crabgrass [1])	herbicidal effect on wild oat (I) (wild oat [2])	Herbicidal effect on D (Chinese sprangletop), foliage application (Chinese sprangletop)	herbicidal effect on persian speedwell (R) (persian speedwell)	herbicidal effect on windgrass (L) (windgrass)	herbicidal effect on blackgrass (J) (blackgrass [3])	Herbicidal effect on H (barnyard grass), foliage application (barnyard grass [4])	herbicidal effect on barnyard grass (H) (barnyard grass [6])	herbicidal effect on false cleavers (Q) (false cleavers [10])	also measured
CCOc1cc(F)ccc1-c1sc2cc(Cl)ccc2c1-c1c(O)c(C)nn(C)c1=O [3-045]	1 (Herbicidal rate of 5% or more and less than 20%)	0 (Herbicidal rate of 5% or less (almost no effect))	5 (Herbicidal rate of 90% or more (almost completely withered))	3 (Herbicidal rate of 40% or more and less than 70%)	4 (Herbicidal rate of 70% or more and less than 90%)	0 (Herbicidal rate of 5% or less (almost no effect))	3 (Herbicidal rate of 40% or more and less than 70%)	0 (Herbicidal rate of 5% or less (almost no effect))	–	–	–	–	–	–	–	–	–	–	O: lambsquarters, herbicidal effect grade (lambsquarters): 3 (Herbicidal rate of 40% or more and less than 70%); F: southern crabgrass, herbicidal effect grade (southern crabgrass [1]): 5 (Herbicidal rate of 90% or more (almost completely withered)); I: wild oat, herbicidal effect grade (wild oat [2]): 5 (Herbicidal rate of 90% or more (almost completely withered)); herbicidal effect on Chinese sprangletop (D) (Chinese sprangletop; 320 g/ha): 4 (Herbicidal rate of 70% or more and less than 90%); R: persian speedwell, herbicidal effect grade (persian speedwell): 5 (Herbicidal rate of 90% or more (almost completely withered)); L: windgrass, herbicidal effect grade (windgrass): 5 (Herbicidal rate of 90% or more (almost completely withered)); J: blackgrass, herbicidal effect grade (blackgrass [3]): 4 (Herbicidal rate of 70% or more and less than 90%); herbicidal effect on barnyard grass (H) (barnyard grass [4]; 320 g/ha): 5 (Herbicidal rate of 90% or more (almost completely withered)); H: barnyard grass, herbicidal effect grade (barnyard grass [6]): 5 (Herbicidal rate of 90% or more (almost completely withered))
COc1ccc(-c2oc3ccc(Cl)cc3c2-c2c(O)c(C)nn(C)c2=O)cc1 [9-002]	3 (Herbicidal rate of 40% or more and less than 70%)	3 (Herbicidal rate of 40% or more and less than 70%)	2 (Herbicidal rate of 20% or more and less than 40%)	4 (Herbicidal rate of 70% or more and less than 90%)	0 (Herbicidal rate of 5% or less (almost no effect))	0 (Herbicidal rate of 5% or less (almost no effect))	1 (Herbicidal rate of 5% or more and less than 20%)	2 (Herbicidal rate of 20% or more and less than 40%)	4 (Herbicidal rate of 70% or more and less than 90%)	0 (Herbicidal rate of 5% or less (almost no effect))	0 (Herbicidal rate of 5% or less (almost no effect))	0 (Herbicidal rate of 5% or less (almost no effect))	5 (Herbicidal rate of 90% or more (almost completely withered))	1 (Herbicidal rate of 5% or more and less than 20%)	0 (Herbicidal rate of 5% or less (almost no effect))	3 (Herbicidal rate of 40% or more and less than 70%)	0 (Herbicidal rate of 5% or less (almost no effect))	–	–
COc1ccc(-c2oc3ccc(C)cc3c2-c2c(O)c(C)nn(C)c2=O)cc1 [9-007]	5 (Herbicidal rate of 90% or more (almost completely withered))	5 (Herbicidal rate of 90% or more (almost completely withered))	5 (Herbicidal rate of 90% or more (almost completely withered))	5 (Herbicidal rate of 90% or more (almost completely withered))	–	1 (Herbicidal rate of 5% or more and less than 20%)	4 (Herbicidal rate of 70% or more and less than 90%)	5 (Herbicidal rate of 90% or more (almost completely withered))	5 (Herbicidal rate of 90% or more (almost completely withered))	5 (Herbicidal rate of 90% or more (almost completely withered))	4 (Herbicidal rate of 70% or more and less than 90%)	1 (Herbicidal rate of 5% or more and less than 20%)	5 (Herbicidal rate of 90% or more (almost completely withered))	4 (Herbicidal rate of 70% or more and less than 90%)	4 (Herbicidal rate of 70% or more and less than 90%)	4 (Herbicidal rate of 70% or more and less than 90%)	4 (Herbicidal rate of 70% or more and less than 90%)	1 (Herbicidal rate of 5% or more and less than 20%)	–
CCCC(=O)Oc1c(C)nn(C)c(=O)c1-c1c(-c2ccc(OC)cc2)oc2ccc(C)cc12 [9-008]	5 (Herbicidal rate of 90% or more (almost completely withered))	4 (Herbicidal rate of 70% or more and less than 90%)	3 (Herbicidal rate of 40% or more and less than 70%)	5 (Herbicidal rate of 90% or more (almost completely withered))	–	0 (Herbicidal rate of 5% or less (almost no effect))	0 (Herbicidal rate of 5% or less (almost no effect))	5 (Herbicidal rate of 90% or more (almost completely withered))	4 (Herbicidal rate of 70% or more and less than 90%)	3 (Herbicidal rate of 40% or more and less than 70%)	3 (Herbicidal rate of 40% or more and less than 70%)	3 (Herbicidal rate of 40% or more and less than 70%)	5 (Herbicidal rate of 90% or more (almost completely withered))	0 (Herbicidal rate of 5% or less (almost no effect))	1 (Herbicidal rate of 5% or more and less than 20%)	2 (Herbicidal rate of 20% or more and less than 40%)	3 (Herbicidal rate of 40% or more and less than 70%)	0 (Herbicidal rate of 5% or less (almost no effect))	–
